ChEMBL document CHEMBL5143734, “Seco-Lupane Triterpene Derivatives Induce Ferroptosis through GPX4/ACSL4 Axis and Target Cyclin D1 to Block the Cell Cycle” (J Med Chem, 2022)
Activity calls are given as the source filed them. No cut-off for these calls is given here.

Legend:
HepG2 [1] = assay: Antiproliferative activity against human HepG2 cells assessed as inhibition of clone formation pretreated for 48 hrs followed by replacement with drug free medium every 3 days for 10 days by crystalline violet staining based assay; assay type: functional, cell-based; settings: dose 0.5-2 µM, DDE = dose-dependent effect
HepG2 [2] = assay: Cytotoxicity against human HepG2 cells assessed as reduction in cell viability incubated for 48 hrs by CCK-8 assay; assay type: functional, cell-based; settings: dose 0.78125-50 µM, DDE = dose-dependent effect
MCF7 = assay: Cytotoxicity against human MCF7 cells assessed as reduction in cell viability by CCK-8 assay; assay type: functional, cell-based
A549 = assay: Cytotoxicity against human A549 cells assessed as reduction in cell viability by CCK-8 assay; assay type: functional, cell-based
HepG2 [3] = assay: Cytotoxicity against human HepG2 cells assessed as reduction in cell viability by CCK-8 assay; assay type: functional, cell-based
PC-3M = assay: Cytotoxicity against human PC-3M cells assessed as reduction in cell viability by CCK-8 assay; assay type: functional, cell-based
PANC-1 = assay: Cytotoxicity against human PANC-1 cells assessed as reduction in cell viability by CCK-8 assay; assay type: functional, cell-based
HepG2 [4] = assay: Antiproliferative activity against human HepG2 cells at 0.125 to 0.5 uM incubated for 48 hrs; assay type: functional, cell-based; settings: dose 0.125-0.5 µM
HepG2 [5] = assay: Induction of ferroptosis in human HepG2 cells assessed as increase in ACSL4 mRNA expression measured after 6 to 36 hrs by qRT-PCR analysis; assay type: functional, cell-based; settings: dose 0.25-1 µM, time 6-36 hrs, DDE = dose-dependent effect
HepG2 [6] = assay: Induction of ferroptosis in human HepG2 cells assessed as decrease in GPX4 mRNA expression measured after 36 hrs by qRT-PCR analysis; assay type: functional, cell-based; settings: dose […], DDE = dose-dependent effect
HepG2 [7] = assay: Induction of ferroptosis in human HepG2 cells assessed as log2 fold decrease in GPX4 mRNA expression by qRT-PCR analysis; assay type: functional
HepG2 [8] = assay: Induction of ferroptosis in human HepG2 cells assessed as log2 fold increase in ACSL4 mRNA expression by qRT-PCR analysis; assay type: functional
HepG2 [9] = assay: Induction of ferroptosis in human HepG2 cells assessed as increase in ACSL4 protein expression at 2 uM by Western blot analysis; assay type: functional, cell-based; settings: time 6-36 hrs, TDE = time-dependent effect
HepG2 [10] = assay: Induction of ferroptosis in human HepG2 cells assessed as decrease in GPX4 protein expression at 2 uM measured after 6 hrs by Western blot analysis; assay type: functional, cell-based
HepG2 [11] = assay: Induction of ferroptosis in human HepG2 cells assessed as decrease in GPX4 protein expression at 2 uM by Western blot analysis; assay type: functional, cell-based; settings: time 6-36 hrs, TDE = time-dependent effect
HepG2 [12] = assay: Induction of ferroptosis in human HepG2 cells assessed as increase in intracellular ROS level at 2 uM incubated for 48 hrs by DCFH-DA staining based flow cytometry analysis; assay type: functional
HepG2 [13] = assay: Induction of ferroptosis in human HepG2 cells assessed as increase in intracellular ROS level incubated for 48 hrs by DCFH-DA staining based flow cytometry analysis; assay type: functional, cell-based; settings: dose 0.25-1 µM, DDE = dose-dependent effect
HepG2 [14] = assay: Induction of ferroptosis in human HepG2 cells assessed as increased in Fe2+ level incubated for 36 hrs; assay type: functional, cell-based; settings: dose 0.5-2 µM, DDE = dose-dependent effect
HepG2 [15] = assay: Induction of ferroptosis in human HepG2 cells assessed as increased in MDA level incubated for 36 hrs; assay type: functional, cell-based; settings: dose 0.5-2 µM, DDE = dose-dependent effect
HepG2 [16] = assay: Induction of ferroptosis in human HepG2 cells assessed as decreased in GSH level incubated for 36 hrs; assay type: functional, cell-based; settings: dose 0.5-2 µM, DDE = dose-dependent effect
HepG2 [17] = assay: Downregulation of Cyclin A2 mRNA expression in human HepG2 cells assessed as fragments per kilo base of exon per million mapped fragments by RT-qPCR analysis (reference value: 37.48 to 47.03); assay type: functional
HepG2 [18] = assay: Downregulation of Cyclin B1 mRNA expression in human HepG2 cells assessed as fragments per kilo base of exon per million mapped fragments by RT-qPCR analysis (reference value: 54.40 to 58.62); assay type: functional
[19] = Upregulation of Cyclin E1 mRNA expression in human HepG2 cells assessed as fragments per kilo base of exon per million mapped fragments […] (reference value: 11.43 to 14.86); assay type: functional
HepG2 [20] = assay: Downregulation of Cyclin A2 mRNA expression in human HepG2 cells at 0.5 to 2.0 uM by RT-qPCR analysis; assay type: functional, cell-based; settings: dose 0.5-2 µM, time 6-36 hrs, TDE = time-dependent effect
HepG2 [21] = assay: Downregulation of Cyclin D1 mRNA expression in human HepG2 cells at 0.5 to 2.0 uM by RT-qPCR analysis; assay type: functional, cell-based; settings: dose 0.5-2 µM, time 6-36 hrs, TDE = time-dependent effect
HepG2 [22] = assay: Downregulation of Cyclin E1 mRNA expression in human HepG2 cells at 0.5 to 2.0 uM by RT-qPCR analysis; assay type: functional, cell-based; settings: dose 0.5-2 µM, time 6-36 hrs, TDE = time-dependent effect
HepG2 [23] = assay: Downregulation of Cyclin D1 protein expression in human HepG2 cells measured at 2 uM by Western blot analysis; assay type: functional, cell-based; settings: time 6-36 hrs, TDE = time-dependent effect
[24] = target: G1/S-specific cyclin-D1 (Homo sapiens) (UniProt P24385); assay: Binding affinity to Cyclin D1 in human HepG2 cells by laser confocal microscopy; assay type: cell-based
HepG2 [25] = assay: Inhibition of Cyclin D1 in human HepG2 cells assessed as reduction in CDK6 expression by Western blot analysis; assay type: cell-based; settings: dose 0.5-2 µM, DDE = dose-dependent effect
HepG2 [26] = assay: Inhibition of Cyclin D1 in human HepG2 cells assessed as reduction in E2F expression by Western blot analysis; assay type: cell-based; settings: dose 0.5-2 µM, DDE = dose-dependent effect
HepG2 [27] = assay: Inhibition of Cyclin D1 in human HepG2 cells assessed as reduction in Rb phosphorylation by Western blot analysis; assay type: cell-based; settings: dose 0.5-2 µM, DDE = dose-dependent effect
HepG2 [28] = assay: Cytotoxicity against human HepG2 cells assessed as reduction in cell viability at 5 to 100 uM relative to control; assay type: functional; settings: dose 5-100 µM
HepG2 [29] = assay: Induction of ferroptosis in human HepG2 cells assessed as upregulation of ACSL4 mRNA expression by measuring fragments per kilo base of exon per million mapped fragments […] (reference value: 75.85 to 97.44); assay type: functional
HepG2 [30] = assay: Cytotoxicity against human HepG2 cells assessed as reduction in cell viability at 1.5625 uM incubated for 48 hrs by CCK-8 assay relative to control; assay type: functional
HepG2 [31] = assay: Cytotoxicity against human HepG2 cells assessed as reduction in cell viability at 50 uM incubated for 48 hrs by CCK-8 assay; assay type: functional, cell-based
HepG2 [32] = assay: Antiproliferative activity against human HepG2 cells incubated for 24 to 48 hrs by Edu staining based fluorescence microscopy assay; assay type: functional, cell-based; settings: dose 0.125-2 µM, time 24-48 hrs, DDE = dose-dependent effect
HepG2 [33] = assay: Induction of ferroptosis in human HepG2 cells assessed as upregulation of ACSL4 mRNA expression at 0.25 to 1 uM by qRT-PCR analysis; assay type: functional, cell-based; settings: dose 0.25-1 µM, time 24-48 hrs, TDE = time-dependent effect
HepG2 [34] = assay: Induction of cell cycle arrest in human HepG2 cells assessed as decrease in cells at S phase at 0.5 to 2 uM; assay type: functional, cell-based; settings: dose 0.5-2 µM
HepG2 [35] = assay: Induction of cell cycle arrest in human HepG2 cells assessed as decrease in cells at G2 phase at 0.5 to 2 uM; assay type: functional, cell-based; settings: dose 0.5-2 µM
[36] = Inhibition of Cyclin D1 in human HepG2 cells assessed as reduction in CDK4 expression by Western blot analysis; settings: dose 0.5-2 µM, DDE = dose-dependent effect

G1/S-specific cyclin-D1 (Homo sapiens), sequence (P24385 whole entry): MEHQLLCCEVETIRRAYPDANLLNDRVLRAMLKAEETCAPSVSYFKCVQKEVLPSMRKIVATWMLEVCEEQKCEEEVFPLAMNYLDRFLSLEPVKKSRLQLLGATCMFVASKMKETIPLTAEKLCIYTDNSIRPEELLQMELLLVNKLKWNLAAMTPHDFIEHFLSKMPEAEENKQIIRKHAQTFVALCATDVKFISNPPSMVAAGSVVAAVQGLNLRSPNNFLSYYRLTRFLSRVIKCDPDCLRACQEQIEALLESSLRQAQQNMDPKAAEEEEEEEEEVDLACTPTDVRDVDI

In the case of `C=C(C)[C@@H]1CC[C@]2(C(=O)OCCCCCn3cc(CCN)c4ccccc43)CC[C@]3(C)[C@H](C[C@H]4OC(=O)C[C@@H](O)[C@]5(C)[C@@H]4[C@@]3(C)CC[C@H]5C(=C)C)[C@@H]12`, the Activity (HepG2 [1]) is reported as “Dde”, the Activity (HepG2 [2]) is reported as “Dde” and the IC50 (MCF7) is reported as 5.34 µM. For the same molecule, the IC50 (A549) was 5.44 µM, the IC50 (HepG2 [3]) was 0.97 µM and the IC50 (PC-3M) was 3.93 µM. The IC50 (PANC-1) was 5.5 µM, the Activity (HepG2 [4]) was “Active” and the Activity (HepG2 [5]) was “Dde”. The Activity (HepG2 [6]) was “Dde”, the log2FC (HepG2 [7]) was -0.29 and the log2FC (HepG2 [8]) was 0.83. The Activity (HepG2 [9]) was “Tde”, the Activity (HepG2 [10]) was “Active” and the Activity (HepG2 [11]) was “Tde”. For the same molecule, the Activity (HepG2 [12]) was 96.39%, the Activity (HepG2 [13]) was “Dde” and the Activity (HepG2 [14]) was “Dde”. The Activity (HepG2 [15]) was “Dde”, the Activity (HepG2 [16]) was “Dde” and the Activity (HepG2 [17]) was 30.38. For the same molecule, the Activity (HepG2 [18]) was 39.59, the Activity [19] was 14.11 and the Activity (HepG2 [20]) was “Tde”. The Activity (HepG2 [21]) was “Tde”, the Activity (HepG2 [22]) was “Tde” and the Activity (HepG2 [23]) was “Tde”. The Activity [24] was “Active”, the inhibition (HepG2 [25]) was “Dde” and the inhibition (HepG2 [26]) was “Dde”. For the same molecule, the inhibition (HepG2 [27]) was “Dde”, the Activity (HepG2 [28]) was 10.55% and the Activity (HepG2 [29]) was 132.19. The inhibition at 1.562 µM (HepG2 [30]) was 95.1%, the Activity (HepG2 [31]) was “Active” and the Activity (HepG2 [32]) was “Dde”. The Activity (HepG2 [33]) was “Tde”, the Activity (HepG2 [34]) was “Active” and the Activity (HepG2 [35]) was “Active”. The inhibition [36] was “Dde”.
